Values of other authors, collected in article PMC6601333 (Biochemical and biophysical research communications, 2019).

Key:
[1] = system: wild type HIV-1 PR
[2] = system: HIV-2 PR

SMILES	inhibition of HIV-1 PR (in words) [1]	inhibition of HIV-2 PR (in words) [2]	inhibition of HIV-2 PR, fold worse than for HIV-1 PR ([2]; relative to HIV-1 PR) [fold]
CC(C)CN(C[C@@H](O)[C@H](Cc1ccccc1)NC(=O)O[C@H]1CO[C@H]2OCC[C@H]21)S(=O)(=O)c1ccc(N)cc1 [DRV, darunavir]	effective inhibitors	effective inhibitors	
CC(C)(C)NC(=O)[C@@H]1C[C@@H]2CCCC[C@@H]2CN1C[C@@H](O)[C@H](Cc1ccccc1)NC(=O)[C@H](CC(N)=O)NC(=O)c1ccc2ccccc2n1 [SQV, saquinavir]	effective inhibitors	effective inhibitors	
CC(C)CN(C[C@@H](O)[C@H](Cc1ccccc1)NC(=O)O[C@H]1CCOC1)S(=O)(=O)c1ccc(N)cc1 [APV, amprenavir]			19
